Source: paper PMC6952399, “Structures of lipoprotein signal peptidase II from Staphylococcus aureus complexed with antibiotics globomycin and myxovirescin” (Nature Communications, 2020)
“And” between values parts separate entries of the source, which are not always exact repeats. Equal values may be shown once.

Tests used:
[1] = biological target: T1, LspMrs (lipoprotein signal peptidase II from methicillin-resistant Staphylococcus aureus) (Staphylococcus aureus, UniProt Q6GHN9); experiment: FRET lipopeptide peptidase assay, LspMrs; format: biochemical; settings: for IC50: IC50, FRET, 0.3 µM enzyme, 80 µM substrate, initial rates; for Rate (RFU/min): replicates 1 and 2
T1 construct: MGSS-hexahistidine-SSGR-TEV site (ENLYFQ) (N, cleaved yes); made in house; host or cells: E. coli C43 (DE3)
Method: FRET activity assays. A FRET based assay was developed using a labelled lipopeptide substrate (Supplementary Methods, Supplementary Fig. 3b) to directly monitor the protease activity of LspA. The optimised LspMrs assay buffer included 100 mM Tris/HCl pH 7.8, 150 mM NaCl and 0.09%(w/v) DDM. The corresponding optimized buffer for LspPae included 100 mM MES/NaOH pH 5.6, 150 mM NaCl and 0.05%(w/v) LMNG. All assays were performed at 37 °C.
Reaction mixtures were prepared by pipetting the FRET lipopeptide substrate (dissolved in DMSO) directly into assay buffer at a final concentration of 80 µM. Reaction mixtures were prepared by vortexing (Clifton, cyclone CM-1) for 2 s and incubated at 37 °C, 800 rpm for 10 to 30 min. Equal volumes of the reaction mixture were pipetted into 1.5 mL Eppendorf tubes and 0 to 150 µM globomycin or myxovirescin (in DMSO) added. For dose-response assays, the final DMSO concentration in all reactions was 10%(v/v). Reaction mixtures were pipetted into wells of a 96- (Thermo Scientific) or a 384-well plate (4titude®) and incubated for 10 min at 37 °C in a SpectraMax M3 or a SpectraMax M5e plate reader (Molecular devices) prior to starting the assay. Assays were initiated by adding enzyme to a final concentration in the range 10–300 nM. Total reaction mixture volume was 50 μL. Reactions were monitored by fluorescence (Ex/Em, 320 nm/420 nm) for 30 to 60 min at 37 °C. Initial rates were calculated from the fluorescence intensity versus time progress curves (Supplementary Figs. 5 and 6). Occasionally, lag periods in the progress curves were observed (Supplementary Discussion). In such cases, initial rates were calculated after the lag period had passed (typically 1–5 min) and a steady rate had been established. Dose-response plots to determine IC50 values were generated using Prism® 5 software from GraphPad.
It was possible to convert units of fluorescence change into moles of substrate consumed or products formed because pure products of LspA action on Abz-LALAGC*SS-nY-NH2 had been synthesized and were available. These were used to create a standard curve of fluorescence versus moles of the two products in equimolar amounts and to calculate specific activity values.

LspMrs R110K = biological target: T2, LspMrs R110K (Staphylococcus aureus, UniProt Q6GHN9, R110K); experiment: Gel-shift peptidase assay, LspMrs R110K mutant; format: biochemical, methicillin-resistant Staphylococcus aureus
T2 construct: MGSS-hexahistidine-SSGR-TEV site (ENLYFQ) (N, cleaved yes); made in house; host or cells: E. coli C43 (DE3)
Method: (§1) LspA mutant genes (N52A, N52Q, G54A, G54P, R110A, R110K, D118N, N133A, N133Q and D136N) were obtained by site-directed mutagenesis of the wild-type lspA construct in pETDuet. Mutagenesis was performed using the Q5® Site-Directed Mutagenesis Kit (New England Biolabs) and specific primers are listed in Supplementary Table 5. The correct mutations were confirmed by sequencing (Eurofins Genomics). Expression and purification of all LspMrs wild-type and mutants for enzyme assays were performed as described above with the following modifications: TALON® Metal Affinity Resin (Clontech) was used for IMAC purification and the detergent DDM was used for membrane solubilisation and protein purification.
(§2) The peptidase activity of LspMrs and P. aeruginosa LspA (LspPae) was quantified in a coupled gel-shift assay developed previously for LspPae[5]. The P. aeruginosa lipoprotein pre-proICP and the first two enzymes in the bacterial lipoprotein processing pathway Lgt and LspA were expressed and purified, as described. For FRET assays LspMrs was expressed and purified as described above and LspPae was expressed and purified as described in a published protocol.
(§3) Gel-shift activity assay. […] Band intensities of ICP were quantified using Image Lab. […]

LspMrs N52Q = biological target: T3, LspMrs N52Q (Staphylococcus aureus, UniProt Q6GHN9, N52Q); experiment: Gel-shift peptidase assay, LspMrs N52Q mutant; format: biochemical, methicillin-resistant Staphylococcus aureus
T3 construct: MGSS-hexahistidine-SSGR-TEV site (ENLYFQ) (N, cleaved yes); made in house; host or cells: E. coli C43 (DE3)
Method: as §1, §2, §3

Structure (SMILES): CCCCCC[C@H]1OC(=O)CNC(=O)[C@H]([C@H](C)O)NC(=O)[C@H](CO)NC(=O)[C@H]([C@H](C)CC)NC(=O)[C@H](CC(C)C)N(C)C(=O)[C@@H]1C [globomycin]
- IC50 [1]: 170 nM and 167 nM
- Rate (RFU/min) ([1]; LspMrs + Globomycin, log [globomycin] (µM) 0.00): 0 RFU/min
- Rate (RFU/min) ([1]; LspMrs + Globomycin, log [globomycin] (µM) -0.30): 0 RFU/min
- Rate (RFU/min) ([1]; LspMrs + Globomycin, log [globomycin] (µM) -0.52): 0.33 RFU/min and 0.27 RFU/min
- Rate (RFU/min) ([1]; LspMrs + Globomycin, log [globomycin] (µM) -0.70): 0.64 RFU/min and 0.57 RFU/min
- Rate (RFU/min) ([1]; LspMrs + Globomycin, log [globomycin] (µM) -1.00): 1.06 RFU/min and 1.05 RFU/min
- Rate (RFU/min) ([1]; LspMrs + Globomycin, log [globomycin] (µM) -2.00): 1.47 RFU/min and 1.55 RFU/min
- Rate (RFU/min) ([1]; LspMrs + Globomycin, log [globomycin] (µM) -3.00): 1.53 RFU/min and 1.49 RFU/min
- IC50 (LspMrs R110K): 1730 ± 100 nM
- IC50 (LspMrs N52Q): 2430 ± 340 nM

Structure (SMILES): CCCC1OC(=O)C(C)CC(C)CCCCC(=O)CCCC(CC)C=CC=C(COC)CCC(O)C(O)CC(O)CNC1=O (centres unmarked) [myxovirescin, myxovirescin A1]
- IC50 [1]: 151 nM
- Rate (RFU/min) ([1]; LspMrs + Myxovirescin, log [myxovirescin] (µM) 0.00): 0 RFU/min
- Rate (RFU/min) ([1]; LspMrs + Myxovirescin, log [myxovirescin] (µM) -0.30): 0 RFU/min
- Rate (RFU/min) ([1]; LspMrs + Myxovirescin, log [myxovirescin] (µM) -0.52): 0 RFU/min and 0.13 RFU/min
- Rate (RFU/min) ([1]; LspMrs + Myxovirescin, log [myxovirescin] (µM) -0.70): 0.55 RFU/min and 0.58 RFU/min
- Rate (RFU/min) ([1]; LspMrs + Myxovirescin, log [myxovirescin] (µM) -1.00): 1.04 RFU/min
- Rate (RFU/min) ([1]; LspMrs + Myxovirescin, log [myxovirescin] (µM) -2.00): 1.47 RFU/min and 1.55 RFU/min
- Rate (RFU/min) ([1]; LspMrs + Myxovirescin, log [myxovirescin] (µM) -3.00): 1.49 RFU/min and 1.52 RFU/min
- IC50 (LspMrs R110K): 400 ± 30 nM
- IC50 (LspMrs N52Q): 290 ± 80 nM
